Test results: EP0953357A1, “NEPHROTROPIC DRUGS” (Drug Delivery System Institute, Ltd., priority 1997, dated 1998)
Read-outs that look alike come from different tables or passages of the source.

How the values were obtained:
[1] = Autoradiography of sugar-modified AVPs in the kidney (Test 2); assay type: in vivo; conditions: rats, 5 min after administration, compared with Gal-C8-O-AVP and AVP
Description: Sugar-modified AVPs were administered to rats. Five min after the administration, accumulation sites in the kidney were examined by autoradiography.

[2] = Distribution of sugar-modified AVP in organs (Test 1); assay type: in vivo, male SD rats; conditions: rats, i.v. 1 nmol/kg
Description: The organ clearance was determined by the following equation.
The organ clearance under the above experimental conditions is considered as a measure of the speed at which the compound is incorporated into the organs. The kidney is an organ which functions to perform glomerular filtration for the production of urine. The renal clearance of low-molecular weight compounds, which are likely to undergo glomerular filtration, is generally larger than the clearance for other organs. Further, under the above experimental conditions, it was estimated from the results on ^14C-labeled inulin that the incorporation of about 0.6 ml/min/g was carried out by glomerular filtration. Larger values indicate the incorporation of drugs into the kidney through blood vessels in addition to the glomerular filtration.

[3] = Renal selectivity of modified anti-inflammatory steroid, part 1: total radioactivity in organs (Test 7); conditions: rats, i.v. 10 nmol/kg, 5 min
[4] = Pharmacokinetic test of rats (Glc-S-C5-Ala-DEX) (Test 10 (1)); assay type: in vivo; conditions: male, rat, iv, Group B, i.v. 100 nmol/kg, n = 3, average ± SD
From the text: For both the groups, the dose was 100 nmol/kg.
Plasma was fractionated from the collected blood according to the conventional method. Further, the kidney and the liver were extracted. The plasma was deprotenized, and the organs were homogenized and deprotenized, followed by separation by reversed phase liquid chromatography. Thereafter, Glc-S-C5-Ala-DEX and dexamethasone were detected and quantitatively determined by UV detector.

Structure (SMILES)	concentration in cortical part and in the outer layer of the outer band in the medulla [1]	concentration in the medulla [1]	Renal clearance ([2]; 5 min, Fig. 2) [mL/min/g]	renal selectivity ([2]; 5 min after administration, concentration in organs and organ clearance as index (Figs. 1 and 2))	Total conc. of dexamethasone in organ: Adrenal [3] [pmol/g tissue]	Total conc. of dexamethasone in organ: Blood [3] [pmol/g tissue]	Total conc. of dexamethasone in organ: Fat [3] [pmol/g tissue]	Total conc. of dexamethasone in organ: Heart [3] [pmol/g tissue]	Total conc. of dexamethasone in organ: Kidney [3] [pmol/g tissue]	Total conc. of dexamethasone in organ: Liver [3] [pmol/g tissue]	Total conc. of dexamethasone in organ: Lung [3] [pmol/g tissue]	Total conc. of dexamethasone in organ: Spleen [3] [pmol/g tissue]	concentration at 5 min ([4]; kidney, read-out: Concentration of dexamethasone: Kidney) [nM]	concentration at 5 min ([4]; liver, read-out: Concentration of dexamethasone: Liver) [nM]	concentration at 5 min ([4]; plasma, read-out: Concentration of dexamethasone: Plasma) [nM]
N=C(N)NCCC[C@H](NC(=O)[C@@H]1CCCN1C(=O)[C@@H]1CSSC[C@H](NC(=O)CCCCCCCCO[C@@H]2O[C@H](CO)[C@@H](O)[C@H](O)[C@H]2O)C(=O)N[C@@H](Cc2ccc(O)cc2)C(=O)N[C@@H](Cc2ccccc2)C(=O)N[C@@H](CCC(N)=O)C(=O)N[C@@H](CC(N)=O)C(=O)N1)C(=O)NCC(N)=O [Glc-O-C8-AVP]	clearly higher	lower	2.43	high renal selectivity											
C[C@@H]1C[C@H]2[C@@H]3CCC4=CC(=O)C=C[C@]4(C)[C@@]3(F)[C@@H](O)C[C@]2(C)[C@@]1(O)C(=O)CO [dexamethasone]					24.65±0.95	7.61±0.49	2.74±1.12	14.86±1.05	22.36±0.80	65.90±12.61	16.49±1.57	11.04±0.25	203 ± 39.3	930 ± 119	116 ± 13.6
